Assay results taken from patent US6479435B1, “Diaryl ethers and processes for their preparation and herbicidal and desiccant compositions containing them” (ISK Americas Incorporated, priority 1997, dated 2002).

Key:
Type in all cases: in vivo
[1] = system: Johnsongrass (Sorghum halepense, SORHA); experiment: Pre-emerge greenhouse herbicide test, phytotoxicity rating; conditions: 14 days after application, rating scale 0-100
Summary of the method: (§1)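 Seeds sown in sandy loam one day before track-sprayer application of acetone solutions at 125–1000 g ai/ha (187 l/ha), then surface-watered to incorporate and bottom-watered. Injury scored visually at 14 days on a 0–100 scale (0 no damage, 100 complete death).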

[2] = system: barnyardgrass (Echinochloa crusgalli, ECHCG); experiment: as above; conditions: 14 days after application, rating scale 0-100
Summary of the method: as §1

[3] = system: common ragweed (Ambrosia artemisiifolia L., AMBEL); experiment: as above; conditions: 14 days after application, rating scale 0-100
Summary of the method: as §1

[4] = system: green foxtail (Setaria viridis, SETVI); experiment: as above; conditions: 14 days after application, rating scale 0-100
Summary of the method: as §1

[5] = system: ivyleaf morningglory (Ipomoea hederacea, IPOHE); experiment: as above; conditions: 14 days after application, rating scale 0-100
Summary of the method: as §1

[6] = system: lambsquarters (Chenopodium album, CHEAL); experiment: as above; conditions: 14 days after application, rating scale 0-100
Summary of the method: as §1

[7] = system: large crabgrass (Digitaria sanguinalis, DIGSA); experiment: as above; conditions: 14 days after application, rating scale 0-100
Summary of the method: as §1

[8] = system: redroot pigweed (Amaranthus retroflexus, AMARE); experiment: as above; conditions: 14 days after application, rating scale 0-100
Summary of the method: as §1

[9] = system: sicklepod (Cassia obtusifolia, CASOB); experiment: as above; conditions: 14 days after application, rating scale 0-100
Summary of the method: as §1

[10] = system: velvetleaf (Abutilon theophrasti, ABUTH); experiment: as above; conditions: 14 days after application, rating scale 0-100
Summary of the method: as §1

[11] = system: field corn (Zea mays L., var. Dekalb 535, CORN); experiment: Pre-emerge greenhouse test, crop damage rating; conditions: 14 days after application, rating scale 0-100
Summary of the method: as §1

[12] = system: upland rice (Oryza sp., var.Tebonnet, RICE); experiment: Pre-emerge greenhouse test, crop damage rating; conditions: 14 days after application, rating scale 0-100
Summary of the method: as §1

[13] = system: soybean (Glycine max L., var. Pella 86, SOY); experiment: Pre-emerge greenhouse test, crop damage rating; conditions: 14 days after application, rating scale 0-100
Summary of the method: as §1

[14] = system: common ragweed (Ambrosia artemisiifolia L., AMBEL); experiment: Post-emerge greenhouse herbicide test, phytotoxicity rating; conditions: 14 days after application
Summary of the method: (§2)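 Plants at the 2-3 leaf stage, sown 8-21 days earlier, were track-sprayed post-emergence with compound in acetone plus 0.25% v/v non-ionic surfactant at 63-1000 g ai/ha (187 l/ha). Damage was rated at 14 days on a 0-100 scale (0 none, 100 all plants dead), for both crop injury and weed control.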

[15] = system: Johnsongrass (Sorghum halepense, SORHA); experiment: as above; conditions: 14 days after application
Summary of the method: as §2

[16] = system: barnyardgrass (Echinochloa crusgalli, ECHCG); experiment: as above; conditions: 14 days after application
Summary of the method: as §2

[17] = system: green foxtail (Setaria viridis, SETVI); experiment: as above; conditions: 14 days after application
Summary of the method: as §2

[18] = system: ivyleaf morningglory (Ipomoea hederacea, IPOHE); experiment: as above; conditions: 14 days after application
Summary of the method: as §2

[19] = system: lambsquarters (Chenopodium album, CHEAL); experiment: as above; conditions: 14 days after application
Summary of the method: as §2

[20] = system: large crabgrass (Digitaria sanguinalis, DIGSA); experiment: as above; conditions: 14 days after application
Summary of the method: as §2

[21] = system: redroot pigweed (Amaranthus retroflexus, AMARE); experiment: as above; conditions: 14 days after application
Summary of the method: as §2

[22] = system: sicklepod (Cassia obtusifolia, CASOB); experiment: as above; conditions: 14 days after application
Summary of the method: as §2

[23] = system: velvetleaf (Abutilon theophrasti, ABUTH); experiment: as above; conditions: 14 days after application
Summary of the method: as §2

[24] = system: field corn (Zea mays L., var. Dekalb 535, CORN); experiment: Post-emerge greenhouse test, crop damage rating; conditions: 14 days after application
Summary of the method: as §2

[25] = system: upland rice (Oryza sp., var.Tebonnet, RICE); experiment: Post-emerge greenhouse test, crop damage rating; conditions: 14 days after application
Summary of the method: as §2

[26] = system: soybean (Glycine max L., var. Pella 86, SOY); experiment: Post-emerge greenhouse test, crop damage rating; conditions: 14 days after application
Summary of the method: as §2

CN1CC(=O)N(c2cc(Oc3ncccn3)c(Cl)cc2F)C1=O [Compound 8-3]
60: phytotoxicity rating AMBEL ([3]; 500 g ai/ha) | phytotoxicity rating IPOHE ([5]; 500 g ai/ha) | AMBEL phytotoxicity rating (0-100) ([14]; 500 g al/ha) | IPOHE phytotoxicity rating (0-100) ([18]; 63 g al/ha)
40: phytotoxicity rating SORHA ([1]; 500 g ai/ha)
30: crop damage rating RICE ([12]; 500 g ai/ha)
85: CHEAL phytotoxicity rating (0-100) ([19]; 500 g al/ha)
0: phytotoxicity rating SORHA ([1]; 125 g ai/ha) | phytotoxicity rating ECHCG ([2]; 125 g ai/ha) | phytotoxicity rating SETVI ([4]; 125 g ai/ha) | phytotoxicity rating DIGSA ([7]; 125 g ai/ha) | phytotoxicity rating CASOB ([9]; 125 g ai/ha) | phytotoxicity rating CASOB ([9]; 500 g ai/ha) | crop damage rating CORN ([11]; 125 g ai/ha) | crop damage rating RICE ([12]; 125 g ai/ha) | crop damage rating SOY ([13]; 125 g ai/ha) | SORHA phytotoxicity rating (0-100) ([15]; 63 g al/ha) | SORHA phytotoxicity rating (0-100) ([15]; 500 g al/ha) | ECHCG phytotoxicity rating (0-100) ([16]; 63 g al/ha) | ECHCG phytotoxicity rating (0-100) ([16]; 500 g al/ha) | SETVI phytotoxicity rating (0-100) ([17]; 63 g al/ha) | SETVI phytotoxicity rating (0-100) ([17]; 500 g al/ha) | DIGSA phytotoxicity rating (0-100) ([20]; 63 g al/ha) | DIGSA phytotoxicity rating (0-100) ([20]; 500 g al/ha) | CASOB phytotoxicity rating (0-100) ([22]; 63 g al/ha) | CASOB phytotoxicity rating (0-100) ([22]; 500 g al/ha) | CORN crop damage rating (0-100) ([24]; 63 g al/ha) | CORN crop damage rating (0-100) ([24]; 500 g al/ha) | RICE crop damage rating (0-100) ([25]; 63 g al/ha) | RICE crop damage rating (0-100) ([25]; 500 g al/ha)
100: phytotoxicity rating CHEAL ([6]; 500 g ai/ha) | phytotoxicity rating AMARE ([8]; 500 g ai/ha)
90: phytotoxicity rating DIGSA ([7]; 500 g ai/ha) | IPOHE phytotoxicity rating (0-100) ([18]; 500 g al/ha)
10: phytotoxicity rating ECHCG ([2]; 500 g ai/ha) | phytotoxicity rating IPOHE ([5]; 125 g ai/ha) | phytotoxicity rating AMARE ([8]; 125 g ai/ha) | crop damage rating SOY ([13]; 500 g ai/ha) | ABUTH phytotoxicity rating (0-100) ([23]; 63 g al/ha) | SOY crop damage rating (0-100) ([26]; 63 g al/ha)
80: phytotoxicity rating CHEAL ([6]; 125 g ai/ha)
50: CHEAL phytotoxicity rating (0-100) ([19]; 63 g al/ha) | SOY crop damage rating (0-100) ([26]; 500 g al/ha)
75: AMARE phytotoxicity rating (0-100) ([21]; 500 g al/ha) | ABUTH phytotoxicity rating (0-100) ([23]; 500 g al/ha)
70: phytotoxicity rating SETVI ([4]; 500 g ai/ha) | phytotoxicity rating ABUTH ([10]; 500 g ai/ha)
20: phytotoxicity rating AMBEL ([3]; 125 g ai/ha) | phytotoxicity rating ABUTH ([10]; 125 g ai/ha) | AMBEL phytotoxicity rating (0-100) ([14]; 63 g al/ha) | AMARE phytotoxicity rating (0-100) ([21]; 63 g al/ha)
5: crop damage rating CORN ([11]; 500 g ai/ha)

O=C1C2=CCCCN2C(=O)N1c1cc(Oc2ncccc2C(F)(F)F)c(Cl)cc1F [Compound 4-2]
90: CHEAL phytotoxicity rating (0-100) ([19]; 500 g al/ha)
5: CORN crop damage rating (0-100) ([24]; 500 g al/ha)
0: phytotoxicity rating SORHA ([1]; 500 g ai/ha) | phytotoxicity rating ECHCG ([2]; 500 g ai/ha) | phytotoxicity rating IPOHE ([5]; 500 g ai/ha) | phytotoxicity rating DIGSA ([7]; 500 g ai/ha) | phytotoxicity rating CASOB ([9]; 500 g ai/ha) | crop damage rating CORN ([11]; 500 g ai/ha) | crop damage rating RICE ([12]; 500 g ai/ha) | crop damage rating SOY ([13]; 500 g ai/ha) | SORHA phytotoxicity rating (0-100) ([15]; 500 g al/ha) | ECHCG phytotoxicity rating (0-100) ([16]; 500 g al/ha) | DIGSA phytotoxicity rating (0-100) ([20]; 500 g al/ha)
20: CASOB phytotoxicity rating (0-100) ([22]; 500 g al/ha)
70: ABUTH phytotoxicity rating (0-100) ([23]; 500 g al/ha)
30: SOY crop damage rating (0-100) ([26]; 500 g al/ha)
10: SETVI phytotoxicity rating (0-100) ([17]; 500 g al/ha) | RICE crop damage rating (0-100) ([25]; 500 g al/ha)
75: AMBEL phytotoxicity rating (0-100) ([14]; 500 g al/ha)
99: IPOHE phytotoxicity rating (0-100) ([18]; 500 g al/ha)
100: phytotoxicity rating AMBEL ([3]; 500 g ai/ha) | phytotoxicity rating CHEAL ([6]; 500 g ai/ha) | phytotoxicity rating AMARE ([8]; 500 g ai/ha) | AMARE phytotoxicity rating (0-100) ([21]; 500 g al/ha)
95: phytotoxicity rating ABUTH ([10]; 500 g ai/ha)
40: phytotoxicity rating SETVI ([4]; 500 g ai/ha)
